Measured values from PubChem BioAssay AID449762 (Southern Research Specialized Biocontainment Screening …, 2010).
Results filed as inconclusive are left out. Where a SMILES comes first, the peptide text is derived from it. [ ]: non-standard residue; d: D form. The star is where a group is joined. ξ: configuration not given here. ξF = NC(Cc1ccccc1)C(=O)O; Cbz = O=C(OCc1ccccc1)*

What follows are compounds tested on M. tuberculosis H37Rv growth inhibition, 7H9 media (assay: M. tuberculosis growth inhibition, HTS (AID 449762;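 note: bacterial growth assessed after seven days of incubation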)). Settings: not given.

SMILES	IC50
Cc1sc2nc(CN(C(=O)NC3CCCCC3)C3CCCC3)[nH]c(=O)c2c1C	30.5 µM
Oc1ccccc1/C=N/Nc1ccnc(SCc2ccccc2)n1	1.43 µM
COc1ccc(C2(c3ccc(OC)cc3)NC(=O)N(CC(=O)Nc3ccc(OC(F)F)cc3)C2=O)cc1	29.9 µM
O=C(Nc1nc2nc(-c3ccccc3)cc(=O)n2[nH]1)c1ccccc1	17.8 µM
Cn1cc(/C=C2\C(=O)NC(=O)N(c3ccccc3)C2=O)c2ccccc21	10.7 µM
O=[N+]([O-])c1cc(Cl)c(O)c(-[n+]2c(-c3ccccc3)cc(-c3ccccc3)cc2-c2ccccc2)c1	2.32 µM
COc1ccc(C(CCNCc2ccc(OC(C)C)cc2)C(C)C)cc1 (centres undefined)	23.3 µM
O=S1(=O)N(CCN2CC=C(c3c[nH]c4cc(F)ccc34)CC2)c2cccc3c2N1CCC3	11.1 µM
O=[N+]([O-])c1cc(C=Nc2ccc3ccccc3c2)ccc1Br	33.5 µM
COc1ccc(N/N=C(/N=Nc2nc(C)cc(=O)[nH]2)c2ccccc2)cc1	5.91 µM
CCOC(=O)CSc1snnc1-c1ccccc1	13.9 µM
Cc1c(CCC(=O)NCCCn2ccnc2)c(=O)oc2c(C)c3occ(C(C)(C)C)c3cc12	23.1 µM
CC(C)=CCOc1ccc([C@@H]2COc3c(ccc4c3C=CC(C)(C)O4)C2)c(O)c1	4.75 µM
CC12CCC(=O)N1C(C(=O)Nc1ccc(SC(F)F)cc1)CS2 (centres undefined)	30.2 µM
COC(=O)C(CCSC)NC(=O)c1cn(-c2ccc(OC)cc2)c(=O)c2ccccc12 (centres undefined)	12 µM
On1onc2c3cc(-c4ccccc4)nc3ccc21	< 0.2 µM
CCCCN(C)S(=O)(=O)c1ccc(C(=O)Nc2nnc(-c3ccco3)o2)cc1	8.02 µM
C(=N\Nc1ncnc2sc3c(c12)CCC3)/c1cccs1	5.84 µM
C/C(=N\NC(=S)NCC(C)(C)C)c1cc(F)cc(F)c1O	1.22 µM
COc1ccc(C2CC(=O)c3cnc(Nc4cc(C)cc(C)c4)nc3C2)cc1 (centres undefined)	12.3 µM
O=C(NC1CCCCCC1)c1ccccc1-c1ccccc1	18.4 µM

SMILES	IC50
COc1ccc(C(=O)/C=C/Sc2nc3ccccc3o2)cc1	37.8 µM
CCCCCCC#Cc1ccc2c(c1)COc1c3ccccc3nn1-2	93.8 µM
O=C(Nc1ccc(C2=NCCN2)cc1)c1ccc(Cl)c(C(=O)Nc2ccc(C3=NCCN3)cc2)c1	11.3 µM
COc1cc(C)ccc1OCCOc1c(C)cc(Cl)cc1Cl	21.6 µM
COC(=O)C1=C(C)N(Cc2ccccc2)C(=NCc2cccc(Cl)c2)N[C@H]1c1ccccc1	16.5 µM
CCN(C[C@H]1N[C@@](Cc2ccccc2)(C(=O)OC)[C@H]2C(=O)N(Cc3ccccc3)C(=O)[C@@H]12)C(=O)Nc1ccc(C(F)(F)F)cc1	10.4 µM
CCC[C@@H]1C[C@@H](C(=O)NC(C(C)Cl)[C@H]2O[C@H](SC)[C@H](O)[C@@H](O)[C@H]2O)N(C)C1 (some centres undefined)	1.53 µM
CCCc1cc2c(cc1NC(=O)c1ccccc1Cl)OCO2	1.98 µM
Cc1cccc2c1-c1sc(C(=O)Nc3ccccc3N3CCN(C)CC3)cc1CO2	17.9 µM
CCCOP(=O)(OCCC)c1c([N+](=O)[O-])cc(C(F)(F)F)cc1[N+](=O)[O-]	3.88 µM
Oc1ccccc1-c1nnc(COc2ccccc2)o1	7.64 µM
Nc1nnnn1/N=C/C(Br)=C/c1ccccc1	1.08 µM
Cc1ccc(-n2[nH]c(C)c(C=Nc3ccc(S(=O)(=O)Nc4nccs4)cc3)c2=O)c(C)c1	5.73 µM
COc1ccc(OC)c(CN2CCN(C(=O)CNC(=O)c3ccc(C(C)(C)C)cc3)CC2)c1	47.4 µM
CC1(C)Cc2ccccc2C2=NNC(=O)C2=N1	11.2 µM
COc1ccc(-c2cc(C3CCN(C(=O)OC(C)(C)C)CC3)[nH]n2)cc1	17 µM
CSC(=S)N/N=C/c1ccccc1	10.1 µM
Cc1cccc(NC(=O)c2nc[nH]c2C(=O)N[C@H](C)c2ccccc2)c1	3.63 µM
Cc1ccccc1-n1c(SCC(=O)N/N=C/c2c(C)nn(-c3ccccc3)c2C)nc2ccccc2c1=O	2.85 µM
Cc1nn(Cc2ccccc2)c(C)c1C(=O)OCC(=O)c1cc(C)n(CC(F)(F)F)c1C	11.8 µM
CCOC(=O)N/N=C(/C)c1ccc([N+](=O)[O-])o1	3.86 µM

SMILES	IC50
CCN(CC)c1ccc2c(Cl)c(Br)c(=O)oc2c1	13.7 µM
COc1ccc(-c2cc3ccccc3oc2=O)cc1NC(=O)c1ccc([N+](=O)[O-])o1	0.37 µM
Cc1cc(C)cc(-n2c(C)c3c(C)nnc(C)c3c2C)c1	62.8 µM
CN(C)c1ccc(CNC2C3CC4CC(C3)CC2C4)cc1 (centres undefined)	11.8 µM
C=CCN(CC(=O)c1sc(C(=O)OCC)nc1C)c1cccc(Br)c1	19.4 µM
CN1C(=O)/C(=C/c2cccc(Cl)c2)Sc2ccc(C(=O)N3CCCC3)cc21	17.1 µM
CC1=NN(c2ccc(C)c(C)c2)C(=O)/C1=C\C=C\c1ccc([N+](=O)[O-])o1	3.14 µM
O=C(CSc1nnnn1C1CCCCC1)Nc1nc2c(s1)CCCC2	30.7 µM
Cc1cc(/C=N/n2cnnc2)c(C)n1-c1ccc(OCc2ccc(Cl)cc2Cl)cc1	7.25 µM
CCCc1cc(-c2nc(-c3ccc(Br)cc3)cs2)ccn1	10.3 µM
Cc1noc(C)c1COc1ccc(C(=O)OCC(=O)NC23CC4CC(CC(C4)C2)C3)cc1	8.33 µM
C=CCc1c(C)nc(C)nc1N/N=C/c1ccccc1O	2.25 µM
O=[N+]([O-])c1cnc(Nc2ccc(Cl)cn2)c([N+](=O)[O-])c1	45.8 µM
Nc1c(C(=O)O)cnc2c(-c3ccc(Cl)cc3)cnn12	25.5 µM
C=CCSc1n[nH]c(-c2ccc(OCCCC)cc2)n1	15.8 µM
O=C(CCl)Nc1cccn2ncnc12	1.38 µM
O=C(CN1CCN(Cc2ccc(Cl)cc2)CC1)N/N=C/C=C/c1ccccc1[N+](=O)[O-]	26.8 µM
CC(C)(C)c1ccc(OCCCC(=O)NC2=NCCS2)cc1	23 µM
CC(C)(C)C1CCc2sc(-c3nnc(CCl)o3)cc2C1 (centres undefined)	< 0.2 µM
CCOC(=O)CNC(=O)C(Cc1ccccc1)NC(=O)OCc1ccccc1 (centres undefined) (Cbz-[ξF]-Gly-OEt)	2.22 µM
Cn1cnc(Sc2ncnc3nc[nH]c23)c1[N+](=O)[O-]	9.85 µM

SMILES	IC50
CCOC(=O)c1ccc(-c2c(-c3ccc4c(c3)OCO4)noc2C)cc1F	33.3 µM
Cc1ccc(NC(=O)COC(=O)CCc2c[nH]c3ccccc23)cc1[N+](=O)[O-]	0.68 µM
Cn1c(/C=N/Nc2nc3ccccc3[nH]2)nc2ccccc21	40.1 µM
CCCCCc1nc2c(c(=O)c3ccccc3n2C)c(=O)n1C1CCCCCC1	30 µM
CN(Cc1ccco1)c1ncnc2ccc(-c3ccc4c(ccn4C)c3)cc12	16.9 µM
CC1CCN(c2nc(Cl)nc(Nc3ccc([N+](=O)[O-])cc3)n2)CC1	79.8 µM
C=CCN1CC[C@]23c4c5ccc(O)c4O[C@H]2/C(=N/NC(=O)c2ccccc2)CC[C@@]3(O)[C@H]1C5	79.5 µM
Cc1ccc(-c2csc3ncnc(Nc4ccc(N5CCOCC5)cc4)c23)cc1	18.4 µM
O=C(NC1CCCCC1)C(c1ccc2ncccc2c1)N(Cc1ccco1)C(=O)c1ccc2c(c1)OCCO2 (centres undefined)	92.7 µM
COc1ccc(C(C(O)C(=O)c2c[nH]c3ccccc23)N2CCN(c3ccc(OC)cc3)CC2)cc1 (centres undefined)	100 µM
Cc1ccc(NS(=O)(=O)c2ccc(NC(=O)CN(c3cc([N+](=O)[O-])ccc3C)S(C)(=O)=O)cc2)c(C)c1	41.3 µM
S=c1nc2ccccc2c2nc(-c3ccccc3)[nH]n12	10.4 µM
Cn1nnnc1Sc1ncnc2scc(-c3cc4ccccc4o3)c12	0.78 µM
N#CC(C#N)=C(N)CSc1cccc[n+]1[O-]	6.25 µM
Cc1nn(-c2ccccc2)c2c1C(c1ccc([N+](=O)[O-])cc1)N1C(=N2)C(=O)Nc2ccccc21 (centres undefined)	41.4 µM
Cc1nc(N2CCN(c3ccccn3)CC2)c2c(C)c(C(=O)N3CCN(c4ccc(F)cc4)CC3)sc2n1	11.1 µM
COC(=O)C(C)Oc1ccc(-c2nccc(-c3ccccn3)n2)cc1 (centres undefined)	1.73 µM
COc1ccc(NC(C)C(=O)Nc2ccc(C(C)(C)C)cc2)cc1Cl (centres undefined)	86.1 µM
CCOc1cc(C(=O)OCc2ccc(C(=O)OC)o2)cc(Br)c1OC	61.7 µM
CCOC(=O)c1ccc(N=C2C(=S)N(c3ccc(C(=O)OCC)cc3)C(=N)N2/N=C/c2ccccc2)cc1	68.9 µM

Same assay, conditions: measured here: IC90 growth inhibition

SMILES	IC90
Cc1sc2nc(CN(C(=O)NC3CCCCC3)C3CCCC3)[nH]c(=O)c2c1C	> 100 µM
